Experimental data: ChEMBL document CHEMBL1759880, “A facile, one-pot synthesis, characterization and antimicrobial activity of o-hydroxy anilide derivatives and 1-substituted-1,3-dicyclohexylurea analogs of long chain carboxylic acids” (2011)
Values after ≈ are worked out from the molar mass of the structure shown.

Tests used:
[1] = tested on: Aspergillus fumigatus; assay: Antifungal activity against Aspergillus fumigatus after 48 hrs by broth dilution technique; assay type: functional
[2] = tested on: Trichophyton mentagrophytes; assay: Antifungal activity against Trichophyton mentagrophytes after 48 hrs by broth dilution technique; assay type: functional
[3] = tested on: Aspergillus fumigatus; assay: Antifungal activity against Aspergillus fumigatus after 3 to 4 days by disc diffusion method; assay type: functional
[4] = tested on: Staphylococcus aureus; assay: Antibacterial activity against Staphylococcus aureus ATCC 25923 after 24 hrs by broth dilution technique; assay type: functional; settings: ATCC-25923, 24 h
[5] = tested on: Trichophyton mentagrophytes; assay: Antifungal activity against Trichophyton mentagrophytes after 3 to 4 days by disc diffusion method; assay type: functional
[6] = tested on: Candida albicans; assay: Antifungal activity against Candida albicans after 3 to 4 days by disc diffusion method; assay type: functional
[7] = tested on: Staphylococcus aureus; assay: Antibacterial activity against Staphylococcus aureus ATCC 25923 after 24 hrs by disc diffusion method; assay type: functional
[8] = tested on: Streptococcus pyogenes; assay: Antibacterial activity against Streptococcus pyogenes clinical isolate after 24 hrs by disc diffusion method; assay type: functional
[9] = tested on: Candida albicans; assay: Antifungal activity against Candida albicans after 48 hrs by broth dilution technique; assay type: functional
[10] = tested on: Klebsiella pneumoniae; assay: Antibacterial activity against Klebsiella pneumoniae clinical isolate after 24 hrs by disc diffusion method; assay type: functional
[11] = tested on: Pseudomonas aeruginosa; assay: Antibacterial activity against Pseudomonas aeruginosa ATCC 27853 after 24 hrs by disc diffusion method
[12] = tested on: Streptococcus pyogenes; assay: Antibacterial activity against Streptococcus pyogenes clinical isolate after 24 hrs by broth dilution technique; assay type: functional
[13] = tested on: Escherichia coli; assay: Antibacterial activity against Escherichia coli ATCC 25922 after 24 hrs by broth dilution technique; assay type: functional; settings: ATCC-25922, 24 h
[14] = tested on: Talaromyces marneffei; assay: Antifungal activity against Penicillium marneffei after 3 to 4 days by disc diffusion method; assay type: functional
[15] = tested on: Talaromyces marneffei; assay: Antifungal activity against Penicillium marneffei after 48 hrs by broth dilution technique; assay type: functional
[16] = tested on: Escherichia coli; assay: Antibacterial activity against Escherichia coli ATCC 25922 after 24 hrs by disc diffusion method; assay type: functional
[17] = tested on: Pseudomonas aeruginosa; assay: Antibacterial activity against Pseudomonas aeruginosa ATCC 27853 after 24 hrs by broth dilution technique; settings: ATCC-27853, 24 h
[18] = tested on: Klebsiella pneumoniae; assay: Antibacterial activity against Klebsiella pneumoniae clinical isolate after 24 hrs by broth dilution technique; assay type: functional

Row | SMILES | MIC [1] [µg/mL] | MIC [2] [µg/mL] | MIC [4] [µg/mL] | MIC [9] [µg/mL] | MIC [12] [µg/mL] | MIC [13] [µg/mL] | MIC [17] [µg/mL] | MFC [1] [µg/mL] | MFC [2] [µg/mL] | diameter of the inhibition zone (DIZ) [3] [mm] | MBC [4] [µg/mL] | diameter of the inhibition zone (DIZ) [5] [mm] | diameter of the inhibition zone (DIZ) [6] [mm] | diameter of the inhibition zone (DIZ) [7] [mm] | diameter of the inhibition zone (DIZ) [8] [mm] | MFC [9] [µg/mL] | diameter of the inhibition zone (DIZ) [10] [mm] | diameter of the inhibition zone (DIZ) [11] [mm] | MBC [12] [µg/mL] | MBC [13] [µg/mL] | also measured
1 | CCCCCC[C@@H](O)C/C=C\CCCCCCCC(=O)N(C(=O)NC1CCCCC1)C1CCCCC1 | 25 (≈ 49.5 µM) | 25 (≈ 49.5 µM) | 50 (≈ 99 µM) | 25 (≈ 49.5 µM) | 50 (≈ 99 µM) | 50 (≈ 99 µM) | 50 (≈ 99 µM) | 100 (≈ 198 µM) | 100 (≈ 198 µM) | 14.9 | 100 (≈ 198 µM) | 13.1 | 18.3 | 18.5 | 19.1 | 50 (≈ 99 µM) | 17.5 | 23.2 | 100 (≈ 198 µM) | 100 (≈ 198 µM) | MBC [18]: 100 µg/mL (≈ 198 µM); MIC [18]: 50 µg/mL (≈ 99 µM); diameter of the inhibition zone (DIZ) [16]: 20.7 mm; MBC [17]: 100 µg/mL (≈ 198 µM)
2 | CCCCC/C=C\CC[C@H](O)CCCCCCCC(=O)Nc1ccccc1O | 25 (≈ 64.2 µM) | 25 (≈ 64.2 µM) | 25 (≈ 64.2 µM) | 12.5 (≈ 32.1 µM) | 50 (≈ 128 µM) | 25 (≈ 64.2 µM) | 25 (≈ 64.2 µM) | 50 (≈ 128 µM) | 50 (≈ 128 µM) | 18.3 | 50 (≈ 128 µM) | 15.2 | 21.4 | 18.7 | 19.2 | 25 (≈ 64.2 µM) | 17.8 | 23.4 | 100 (≈ 257 µM) | 50 (≈ 128 µM) | MBC [18]: 50 µg/mL (≈ 128 µM); MIC [18]: 25 µg/mL (≈ 64.2 µM); diameter of the inhibition zone (DIZ) [14]: 10.7 mm; MFC [15]: 100 µg/mL (≈ 257 µM); MIC [15]: 25 µg/mL (≈ 64.2 µM); diameter of the inhibition zone (DIZ) [16]: 20.9 mm; MBC [17]: 25 µg/mL (≈ 64.2 µM)
3 | O=C(O)c1cn(C2CC2)c2cc(N3CCNCC3)c(F)cc2c1=O [CIPROFLOXACIN] |  |  |  |  |  |  | 6.5 (≈ 19.6 µM) |  |  |  |  |  |  | 22 |  |  |  | 32 |  |  | 

The remaining compounds from weak to strong by MIC [1], led by results:

Row | MIC [1] [µg/mL] | MIC [2] [µg/mL] | MIC [4] [µg/mL] | MIC [9] [µg/mL] | MIC [12] [µg/mL] | MIC [13] [µg/mL] | MIC [17] [µg/mL] | SMILES | MFC [1] [µg/mL] | MFC [2] [µg/mL] | diameter of the inhibition zone (DIZ) [3] [mm] | MBC [4] [µg/mL] | diameter of the inhibition zone (DIZ) [5] [mm] | diameter of the inhibition zone (DIZ) [6] [mm] | diameter of the inhibition zone (DIZ) [7] [mm] | diameter of the inhibition zone (DIZ) [8] [mm] | MFC [9] [µg/mL] | diameter of the inhibition zone (DIZ) [10] [mm] | diameter of the inhibition zone (DIZ) [11] [mm] | MBC [12] [µg/mL] | MBC [13] [µg/mL] | also measured
4 | 50 (≈ 128 µM) | 50 (≈ 128 µM) | 50 (≈ 128 µM) | 25 (≈ 64.2 µM) | 50 (≈ 128 µM) | 25 (≈ 64.2 µM) | 25 (≈ 64.2 µM) | CCCCCC[C@@H](O)C/C=C\CCCCCCCC(=O)Nc1ccccc1O | 100 (≈ 257 µM) | 100 (≈ 257 µM) | 12.8 | 100 (≈ 257 µM) | 10.5 | 16.2 | 15.6 | 16.1 | 50 (≈ 128 µM) | 14.7 | 15.2 | 100 (≈ 257 µM) | 100 (≈ 257 µM) | diameter of the inhibition zone (DIZ) [14]: 10.1 mm; MFC [15]: 100 µg/mL (≈ 257 µM); MIC [15]: 50 µg/mL (≈ 128 µM); diameter of the inhibition zone (DIZ) [16]: 17.7 mm; MBC [17]: 100 µg/mL (≈ 257 µM)
5 | 12.5 (≈ 24.8 µM) | 12.5 (≈ 24.8 µM) | 25 (≈ 49.5 µM) | 12.5 (≈ 24.8 µM) | 25 (≈ 49.5 µM) | 50 (≈ 99 µM) | 25 (≈ 49.5 µM) | CCCCC/C=C\CC[C@H](O)CCCCCCCC(=O)N(C(=O)NC1CCCCC1)C1CCCCC1 | 25 (≈ 49.5 µM) | 25 (≈ 49.5 µM) | 21.2 | 50 (≈ 99 µM) | 18.3 | 24.2 | 19.5 | 20.8 | 12.5 (≈ 24.8 µM) | 20.6 | 27.1 | 25 (≈ 49.5 µM) | 100 (≈ 198 µM) | MBC [18]: 100 µg/mL (≈ 198 µM); MIC [18]: 25 µg/mL (≈ 49.5 µM); diameter of the inhibition zone (DIZ) [14]: 13.8 mm; MFC [15]: 25 µg/mL (≈ 49.5 µM); MIC [15]: 12.5 µg/mL (≈ 24.8 µM); diameter of the inhibition zone (DIZ) [16]: 23.4 mm; MBC [17]: 100 µg/mL (≈ 198 µM)
6 | 6.25 (≈ 17.7 µM) | 6.25 (≈ 17.7 µM) |  | 6.25 (≈ 17.7 µM) |  |  |  | COC1=CC(=O)C[C@@H](C)[C@]12Oc1c(Cl)c(OC)cc(OC)c1C2=O [GRISEOFULVIN] | 12.5 (≈ 35.4 µM) | 12.5 (≈ 35.4 µM) | 27 |  | 24 | 30 |  |  | 12.5 (≈ 35.4 µM) |  |  |  |  | diameter of the inhibition zone (DIZ) [14]: 20 mm; MFC [15]: 12.5 µg/mL (≈ 35.4 µM); MIC [15]: 6.25 µg/mL (≈ 17.7 µM)
